Data from ChEMBL document CHEMBL5465560, “Selectivity Literature for EUbOPEN Chemogenomic Library” (2024).
One block for each molecule: values may come before it.

Columns and labels:
[1] = molecular target: Ribosomal protein S6 kinase alpha-5 (Homo sapiens) (UniProt O75582); test: Selectivity interaction (KinomeScan (DiscoverX)) EUB0000655a RPS6KA5; details: at 10 µM
[2] = molecular target: Calcium/calmodulin-dependent protein kinase kinase 1 (Homo sapiens) (UniProt Q8N5S9); test: Selectivity interaction (KinomeScan (DiscoverX)) EUB0001619a CAMKK1; details: at 1 µM
[3] = molecular target: T1, Mitogen-activated protein kinase kinase kinase 15 (Homo sapiens) (UniProt Q6ZN16); test: Selectivity interaction (KinomeScan (DiscoverX)) EUB0001619a MAP3K15; details: at 1 µM
T1 sequence (whole entry): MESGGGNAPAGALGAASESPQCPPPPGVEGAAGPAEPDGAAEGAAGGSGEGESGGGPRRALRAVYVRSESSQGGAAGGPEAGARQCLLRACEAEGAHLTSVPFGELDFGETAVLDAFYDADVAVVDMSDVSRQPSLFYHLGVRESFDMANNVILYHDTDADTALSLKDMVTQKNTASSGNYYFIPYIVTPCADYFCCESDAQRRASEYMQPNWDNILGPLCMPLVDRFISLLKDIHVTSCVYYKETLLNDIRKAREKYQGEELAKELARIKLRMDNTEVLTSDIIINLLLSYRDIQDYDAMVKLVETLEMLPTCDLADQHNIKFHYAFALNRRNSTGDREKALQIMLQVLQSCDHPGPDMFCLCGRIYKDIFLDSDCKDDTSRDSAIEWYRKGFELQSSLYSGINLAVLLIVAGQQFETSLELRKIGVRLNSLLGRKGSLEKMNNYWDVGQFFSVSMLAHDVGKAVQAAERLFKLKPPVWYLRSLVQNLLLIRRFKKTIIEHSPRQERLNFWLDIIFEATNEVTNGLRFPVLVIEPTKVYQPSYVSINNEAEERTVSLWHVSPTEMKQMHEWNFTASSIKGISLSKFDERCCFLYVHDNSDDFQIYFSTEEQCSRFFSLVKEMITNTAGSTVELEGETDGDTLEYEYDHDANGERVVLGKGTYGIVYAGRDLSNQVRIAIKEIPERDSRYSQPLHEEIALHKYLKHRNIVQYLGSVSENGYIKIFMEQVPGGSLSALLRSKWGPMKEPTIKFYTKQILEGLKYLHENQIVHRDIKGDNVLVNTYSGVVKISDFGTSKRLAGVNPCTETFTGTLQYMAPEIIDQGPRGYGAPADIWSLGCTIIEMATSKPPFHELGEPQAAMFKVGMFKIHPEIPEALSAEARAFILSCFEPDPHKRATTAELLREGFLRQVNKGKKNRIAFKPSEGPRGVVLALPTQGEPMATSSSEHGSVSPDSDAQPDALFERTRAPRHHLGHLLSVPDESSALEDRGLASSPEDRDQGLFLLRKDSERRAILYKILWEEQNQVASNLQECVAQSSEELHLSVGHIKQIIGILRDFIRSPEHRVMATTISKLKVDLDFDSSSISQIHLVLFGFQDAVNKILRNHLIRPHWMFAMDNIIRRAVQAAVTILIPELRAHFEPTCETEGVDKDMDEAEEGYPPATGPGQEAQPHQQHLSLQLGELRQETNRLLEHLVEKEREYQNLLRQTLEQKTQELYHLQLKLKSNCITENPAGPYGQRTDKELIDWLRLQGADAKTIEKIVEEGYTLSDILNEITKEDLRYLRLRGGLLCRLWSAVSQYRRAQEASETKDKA

[4] = molecular target: Tyrosine-protein kinase CSK (Homo sapiens) (UniProt P41240); test: Selectivity interaction (ActivX KiNativ screen (ex vivo kinase selectivity in human PBMCs)) EUB0001619a CSK; format: cell-based; details: PBMC, at 1 µM
[5] = molecular target: Activin receptor type-2B (Homo sapiens) (UniProt Q13705); details: at 10 µM
[6] = molecular target: Serine/threonine-protein kinase 38 (Homo sapiens) (UniProt Q15208); details: at 10 µM
[7] = molecular target: Serine/threonine-protein kinase SMG1 (Homo sapiens) (UniProt Q96Q15); test: Selectivity interaction (ActivX KiNativ screen (kinase selectivity in THP-1 cell lysates)) EUB0000639a SMG1; format: subcellular; details: lysate, at 0.04 µM
[8] = molecular target: T2, Serine/threonine-protein kinase Nek9 (Homo sapiens) (UniProt Q8TD19); test: Selectivity interaction (ActivX KiNativ screen (kinase selectivity in THP-1 cell lysates)) EUB0000639a NEK9; format: subcellular; details: lysate, at 0.04 µM
T2 sequence (whole entry): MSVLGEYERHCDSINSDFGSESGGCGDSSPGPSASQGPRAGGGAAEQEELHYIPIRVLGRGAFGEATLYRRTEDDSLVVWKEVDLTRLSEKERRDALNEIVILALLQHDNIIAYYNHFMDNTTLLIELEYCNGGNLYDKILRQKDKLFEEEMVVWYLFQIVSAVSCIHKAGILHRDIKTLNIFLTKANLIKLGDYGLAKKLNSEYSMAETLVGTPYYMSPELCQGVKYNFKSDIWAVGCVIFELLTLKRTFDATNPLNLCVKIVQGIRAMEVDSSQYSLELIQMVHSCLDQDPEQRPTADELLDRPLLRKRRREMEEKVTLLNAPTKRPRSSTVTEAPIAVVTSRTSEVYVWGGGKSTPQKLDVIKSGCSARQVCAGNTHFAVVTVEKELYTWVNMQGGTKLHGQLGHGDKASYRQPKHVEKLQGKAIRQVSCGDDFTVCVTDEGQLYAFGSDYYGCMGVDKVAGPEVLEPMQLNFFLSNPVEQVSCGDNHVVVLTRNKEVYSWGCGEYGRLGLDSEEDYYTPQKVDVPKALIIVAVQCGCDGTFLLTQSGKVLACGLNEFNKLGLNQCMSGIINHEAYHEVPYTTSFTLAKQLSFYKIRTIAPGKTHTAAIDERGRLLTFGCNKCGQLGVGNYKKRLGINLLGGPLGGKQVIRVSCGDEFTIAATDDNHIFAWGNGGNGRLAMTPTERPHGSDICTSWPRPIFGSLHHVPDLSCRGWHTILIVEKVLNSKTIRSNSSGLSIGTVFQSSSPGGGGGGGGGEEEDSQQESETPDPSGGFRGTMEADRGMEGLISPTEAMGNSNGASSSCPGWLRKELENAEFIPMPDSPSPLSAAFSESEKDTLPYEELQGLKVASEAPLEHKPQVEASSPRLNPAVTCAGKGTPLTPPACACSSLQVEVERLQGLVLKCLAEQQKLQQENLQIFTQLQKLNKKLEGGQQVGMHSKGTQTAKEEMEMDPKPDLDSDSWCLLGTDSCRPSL

[9] = molecular target: Dual specificity tyrosine-phosphorylation-regulated kinase 1B (Homo sapiens, UniProt Q9Y463); test: Selectivity interaction (KinomeScan (DiscoverX)) EUB0001550a DYRK1B; details: at 1 µM
[10] = molecular target: STE20-like serine/threonine-protein kinase (Homo sapiens, UniProt Q9H2G2); test: Selectivity interaction (LanthaScreen Eu Kinase Binding Assay) EUB0001632a SLK; details: at 10 µM
[11] = molecular target: Bromodomain-containing protein 4 (Homo sapiens, UniProt O60885); test: Selectivity interaction (AlphaScreen binding assay) EUB0001632a BRD4

Chain of Dual specificity tyrosine-phosphorylation-regulated kinase 1B (Q9Y463 whole entry, looked up): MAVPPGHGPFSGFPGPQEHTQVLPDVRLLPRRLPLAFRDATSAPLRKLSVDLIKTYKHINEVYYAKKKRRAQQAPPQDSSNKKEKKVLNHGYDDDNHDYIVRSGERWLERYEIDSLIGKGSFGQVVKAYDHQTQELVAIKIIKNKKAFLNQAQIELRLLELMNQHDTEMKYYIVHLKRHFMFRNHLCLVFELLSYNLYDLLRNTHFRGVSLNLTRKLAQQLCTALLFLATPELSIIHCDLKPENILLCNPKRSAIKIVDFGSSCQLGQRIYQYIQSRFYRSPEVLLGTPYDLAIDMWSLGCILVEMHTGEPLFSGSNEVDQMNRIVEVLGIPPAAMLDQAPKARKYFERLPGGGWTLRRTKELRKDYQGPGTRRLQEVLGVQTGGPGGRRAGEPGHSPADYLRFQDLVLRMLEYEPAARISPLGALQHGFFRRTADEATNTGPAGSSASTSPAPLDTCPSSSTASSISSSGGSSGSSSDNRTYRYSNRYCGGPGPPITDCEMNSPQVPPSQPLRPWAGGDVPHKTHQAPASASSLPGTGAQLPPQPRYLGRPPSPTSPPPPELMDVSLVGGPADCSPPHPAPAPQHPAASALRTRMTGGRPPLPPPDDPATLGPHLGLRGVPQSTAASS
Chain of STE20-like serine/threonine-protein kinase (Q9H2G2 whole entry, looked up): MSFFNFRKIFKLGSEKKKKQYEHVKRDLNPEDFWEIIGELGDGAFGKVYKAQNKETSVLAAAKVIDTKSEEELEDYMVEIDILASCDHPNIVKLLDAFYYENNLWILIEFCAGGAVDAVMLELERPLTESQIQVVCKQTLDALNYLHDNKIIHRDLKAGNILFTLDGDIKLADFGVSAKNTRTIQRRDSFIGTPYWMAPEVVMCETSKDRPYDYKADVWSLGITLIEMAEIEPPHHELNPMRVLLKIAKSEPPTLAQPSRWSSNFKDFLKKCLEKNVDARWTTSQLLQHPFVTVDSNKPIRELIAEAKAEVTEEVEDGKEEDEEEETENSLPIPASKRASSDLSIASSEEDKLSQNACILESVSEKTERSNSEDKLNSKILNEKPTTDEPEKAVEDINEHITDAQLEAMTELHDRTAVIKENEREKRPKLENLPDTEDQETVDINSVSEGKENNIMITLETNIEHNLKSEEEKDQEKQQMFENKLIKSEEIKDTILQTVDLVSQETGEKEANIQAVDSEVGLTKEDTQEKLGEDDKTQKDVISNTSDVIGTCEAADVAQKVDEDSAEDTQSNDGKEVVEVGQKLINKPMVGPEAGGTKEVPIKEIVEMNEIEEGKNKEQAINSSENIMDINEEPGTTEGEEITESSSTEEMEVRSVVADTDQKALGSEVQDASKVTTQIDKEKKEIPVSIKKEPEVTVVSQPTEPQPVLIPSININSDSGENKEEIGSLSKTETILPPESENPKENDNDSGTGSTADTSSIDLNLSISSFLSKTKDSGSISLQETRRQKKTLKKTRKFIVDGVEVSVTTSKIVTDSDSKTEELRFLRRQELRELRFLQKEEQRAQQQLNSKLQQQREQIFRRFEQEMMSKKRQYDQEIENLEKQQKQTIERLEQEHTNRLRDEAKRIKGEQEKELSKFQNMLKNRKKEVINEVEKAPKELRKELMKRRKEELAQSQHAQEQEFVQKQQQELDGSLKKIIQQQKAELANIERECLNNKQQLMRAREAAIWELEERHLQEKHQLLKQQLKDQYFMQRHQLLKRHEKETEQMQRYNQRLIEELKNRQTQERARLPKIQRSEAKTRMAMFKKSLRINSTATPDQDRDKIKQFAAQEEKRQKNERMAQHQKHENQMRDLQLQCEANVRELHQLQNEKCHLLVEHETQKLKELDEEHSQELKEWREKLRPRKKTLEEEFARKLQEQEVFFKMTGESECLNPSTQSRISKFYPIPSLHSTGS
Chain of Serine/threonine-protein kinase 38 (Homo sapiens) (Q15208 2-465 limits assumed): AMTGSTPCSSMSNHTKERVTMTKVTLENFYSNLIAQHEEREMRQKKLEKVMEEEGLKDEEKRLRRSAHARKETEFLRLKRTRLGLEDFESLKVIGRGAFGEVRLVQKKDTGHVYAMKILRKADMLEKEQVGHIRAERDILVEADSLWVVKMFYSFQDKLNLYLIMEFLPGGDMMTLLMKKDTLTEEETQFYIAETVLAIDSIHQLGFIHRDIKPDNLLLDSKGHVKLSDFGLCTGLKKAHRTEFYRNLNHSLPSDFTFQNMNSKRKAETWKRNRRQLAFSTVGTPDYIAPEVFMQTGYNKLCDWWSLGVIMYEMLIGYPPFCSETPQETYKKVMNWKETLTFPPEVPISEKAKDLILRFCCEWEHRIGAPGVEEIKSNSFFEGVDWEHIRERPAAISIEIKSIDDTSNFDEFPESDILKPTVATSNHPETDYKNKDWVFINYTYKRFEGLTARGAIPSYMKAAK
Chain of Tyrosine-protein kinase CSK (Homo sapiens) (P41240 2-450 limits assumed): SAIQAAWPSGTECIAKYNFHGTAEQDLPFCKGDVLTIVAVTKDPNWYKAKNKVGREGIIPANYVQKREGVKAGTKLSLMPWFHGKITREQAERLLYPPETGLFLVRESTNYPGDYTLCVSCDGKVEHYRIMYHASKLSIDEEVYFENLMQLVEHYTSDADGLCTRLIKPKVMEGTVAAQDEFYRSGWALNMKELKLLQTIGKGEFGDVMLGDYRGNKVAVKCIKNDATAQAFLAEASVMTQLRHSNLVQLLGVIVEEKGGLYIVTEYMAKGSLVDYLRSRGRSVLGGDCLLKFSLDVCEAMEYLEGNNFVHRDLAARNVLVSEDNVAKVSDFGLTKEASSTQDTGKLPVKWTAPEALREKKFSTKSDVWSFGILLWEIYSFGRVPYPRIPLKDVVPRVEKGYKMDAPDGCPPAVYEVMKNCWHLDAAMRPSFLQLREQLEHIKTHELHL
Chain of Ribosomal protein S6 kinase alpha-5 (Homo sapiens) (O75582 whole entry, looked up): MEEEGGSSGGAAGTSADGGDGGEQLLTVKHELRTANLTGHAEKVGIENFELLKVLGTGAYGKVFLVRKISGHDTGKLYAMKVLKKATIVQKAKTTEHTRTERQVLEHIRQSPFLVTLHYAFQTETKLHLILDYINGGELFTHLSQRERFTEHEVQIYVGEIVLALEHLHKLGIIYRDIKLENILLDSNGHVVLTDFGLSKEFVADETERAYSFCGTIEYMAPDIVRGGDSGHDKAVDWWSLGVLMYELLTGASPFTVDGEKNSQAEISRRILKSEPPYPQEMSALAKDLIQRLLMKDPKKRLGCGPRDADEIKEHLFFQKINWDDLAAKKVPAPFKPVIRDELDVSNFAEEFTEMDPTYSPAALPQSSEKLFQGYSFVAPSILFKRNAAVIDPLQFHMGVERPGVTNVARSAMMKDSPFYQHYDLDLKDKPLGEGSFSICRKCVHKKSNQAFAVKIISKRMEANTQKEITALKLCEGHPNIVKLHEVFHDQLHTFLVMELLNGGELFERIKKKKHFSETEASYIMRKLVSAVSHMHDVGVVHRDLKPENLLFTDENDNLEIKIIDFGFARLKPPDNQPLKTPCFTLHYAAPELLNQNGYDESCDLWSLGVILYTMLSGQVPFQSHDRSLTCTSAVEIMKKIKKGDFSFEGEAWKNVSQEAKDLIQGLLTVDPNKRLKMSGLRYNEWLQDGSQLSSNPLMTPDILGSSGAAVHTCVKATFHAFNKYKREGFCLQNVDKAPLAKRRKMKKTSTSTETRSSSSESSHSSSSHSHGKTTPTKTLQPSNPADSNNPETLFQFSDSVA
Chain of Activin receptor type-2B (Homo sapiens) (Q13705 whole entry): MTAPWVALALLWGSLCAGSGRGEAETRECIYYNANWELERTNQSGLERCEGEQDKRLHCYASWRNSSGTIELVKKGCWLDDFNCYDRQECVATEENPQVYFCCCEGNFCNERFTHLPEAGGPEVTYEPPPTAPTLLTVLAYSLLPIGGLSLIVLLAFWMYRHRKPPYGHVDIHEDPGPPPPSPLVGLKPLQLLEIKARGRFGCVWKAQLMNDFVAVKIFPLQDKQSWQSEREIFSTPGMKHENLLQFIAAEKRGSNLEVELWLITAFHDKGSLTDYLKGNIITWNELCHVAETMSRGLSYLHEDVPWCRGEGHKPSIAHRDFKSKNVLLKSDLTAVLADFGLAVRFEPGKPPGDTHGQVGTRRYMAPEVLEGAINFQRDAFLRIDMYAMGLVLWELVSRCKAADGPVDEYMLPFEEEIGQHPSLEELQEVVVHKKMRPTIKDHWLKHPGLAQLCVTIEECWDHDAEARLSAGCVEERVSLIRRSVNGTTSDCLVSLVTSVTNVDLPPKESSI
Chain of Calcium/calmodulin-dependent protein kinase kinase 1 (Homo sapiens) (Q8N5S9 whole entry, looked up): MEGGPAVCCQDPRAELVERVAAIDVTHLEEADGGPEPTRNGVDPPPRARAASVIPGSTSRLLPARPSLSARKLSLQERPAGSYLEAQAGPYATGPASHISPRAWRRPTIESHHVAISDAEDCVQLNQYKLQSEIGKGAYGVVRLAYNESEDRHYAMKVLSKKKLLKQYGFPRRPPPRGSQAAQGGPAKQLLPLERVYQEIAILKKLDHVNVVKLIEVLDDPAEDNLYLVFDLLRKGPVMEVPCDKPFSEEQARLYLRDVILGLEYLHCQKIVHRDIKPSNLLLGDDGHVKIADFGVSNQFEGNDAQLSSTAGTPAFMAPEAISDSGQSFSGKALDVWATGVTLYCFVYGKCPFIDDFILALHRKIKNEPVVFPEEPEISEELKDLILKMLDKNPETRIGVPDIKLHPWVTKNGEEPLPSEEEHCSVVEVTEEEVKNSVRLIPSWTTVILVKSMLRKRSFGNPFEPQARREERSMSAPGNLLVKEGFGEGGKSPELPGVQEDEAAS

SMILES: CN(C)CCOc1ccc(-c2nc(-c3ccncc3)c(-c3ccc4c(c3)CC/C4=N\O)[nH]2)cc1
% of control [1]: 90%

SMILES: N#Cc1cccc(-c2c[nH]c3ncnc(N4CCOCC4)c23)c1
% of control [2]: 100%
% of control [3]: 74%
% of inhibition [4]: -45%

SMILES: COCC(=O)NC/C=C/c1ccc2ncnc(Nc3ccc(Oc4ccc(C)nc4)c(C)c3)c2c1 [CP-724714]
% of control [5]: 100%

SMILES: Cc1cc([C@@H](C)Nc2ccccc2C(=O)O)c2nc(N3CCOCC3)cc(=O)n2c1 [AZD-6482]
% of control [6]: 100%

% of inhibition [7]: 4.1%
SMILES: CC[C@@H]1[C@H](F)C(=O)N[C@@H]1COc1nccc2cc(C(N)=O)c(OC)cc12 [ZIMLOVISERTIB]
% of inhibition [8]: 5%

% of control [9]: 26%
SMILES: CN(C)CC#Cc1ccc2[nH]c3c(c2c1)-c1nc(N)ncc1CCC3

% of inhibition [10]: -1.88%
IC50 [11]: > 10 µM
SMILES: Cn1cc(-n2cnc3c(NCc4nc5cc(Cl)c(Cl)cc5[nH]4)nc(N4CCOCC4)nc32)cn1
